Assay [1] concerns the target T1, Replicative DNA helicase DnaB (Mycobacterium tuberculosis, UniProt P9WMR3).
T1 sequence (P9WMR3 whole entry): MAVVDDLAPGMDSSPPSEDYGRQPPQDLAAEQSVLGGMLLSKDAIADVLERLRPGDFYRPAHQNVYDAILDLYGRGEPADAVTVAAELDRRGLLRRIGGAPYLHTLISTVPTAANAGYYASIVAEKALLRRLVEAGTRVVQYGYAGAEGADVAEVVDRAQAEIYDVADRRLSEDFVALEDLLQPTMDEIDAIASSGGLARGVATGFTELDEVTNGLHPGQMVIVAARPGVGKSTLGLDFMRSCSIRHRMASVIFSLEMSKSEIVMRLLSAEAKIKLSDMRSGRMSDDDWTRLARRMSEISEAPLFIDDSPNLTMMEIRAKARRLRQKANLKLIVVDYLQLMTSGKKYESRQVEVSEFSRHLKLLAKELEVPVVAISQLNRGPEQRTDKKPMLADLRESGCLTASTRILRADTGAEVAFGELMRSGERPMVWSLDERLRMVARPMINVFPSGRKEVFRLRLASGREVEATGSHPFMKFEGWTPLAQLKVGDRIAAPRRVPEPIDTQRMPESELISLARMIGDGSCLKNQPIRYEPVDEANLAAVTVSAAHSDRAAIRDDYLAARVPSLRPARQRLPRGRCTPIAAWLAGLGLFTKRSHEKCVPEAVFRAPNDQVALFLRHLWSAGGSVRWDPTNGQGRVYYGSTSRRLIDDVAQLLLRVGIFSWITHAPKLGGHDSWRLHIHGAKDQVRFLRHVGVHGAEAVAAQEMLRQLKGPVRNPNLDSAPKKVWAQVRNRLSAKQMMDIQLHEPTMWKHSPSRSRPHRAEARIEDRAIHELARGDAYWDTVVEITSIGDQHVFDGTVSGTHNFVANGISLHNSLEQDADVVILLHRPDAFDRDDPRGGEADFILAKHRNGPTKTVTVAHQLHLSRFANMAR
Put plainly: DnaB intein splicing inhibitors, dose response, biochemical, cell-free fluorescence (AID 449749). The assay is classed as functional.

Assay [2] concerns the target T2, Orexin/Hypocretin receptor type 1 (Homo sapiens, UniProt O43613).
T2 sequence (O43613 whole entry): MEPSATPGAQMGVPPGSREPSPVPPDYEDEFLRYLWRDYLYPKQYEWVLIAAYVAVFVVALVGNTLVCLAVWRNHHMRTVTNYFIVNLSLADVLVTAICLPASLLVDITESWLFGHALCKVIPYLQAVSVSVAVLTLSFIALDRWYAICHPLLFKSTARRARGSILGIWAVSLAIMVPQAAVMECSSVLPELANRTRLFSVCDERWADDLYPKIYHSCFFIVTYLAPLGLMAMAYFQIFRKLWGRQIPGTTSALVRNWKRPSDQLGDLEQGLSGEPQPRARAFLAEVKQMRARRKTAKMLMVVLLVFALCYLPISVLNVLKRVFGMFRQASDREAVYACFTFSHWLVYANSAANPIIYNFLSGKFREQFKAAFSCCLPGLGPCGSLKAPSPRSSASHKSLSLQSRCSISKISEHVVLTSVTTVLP
Put plainly: Fluorescence-based cell-based high throughput dose response assay for antagonists of the orexin 1 receptor (OX1R; HCRTR1). [Related pubchem assays (depositor defined):AID434989, AID435008, AID463079, AID485270, AID492963, AID492964, AID492965, AID493232, AID504717, AID504718]. Format: functional.

For another assay, the target named is Troponin, cardiac muscle (Homo sapiens, UniProt P19429+P45379+P63316). Put plainly: inhibitors of cardiac thin filament calcium sensitivity, dose response, biochemical, fluorescence, cardiac regulated thin filaments, triplicate IC50 (AID 504742). Format: protein-complex assay.
Assay [3] concerns the target Apoptotic protease-activating factor 1 (Homo sapiens, UniProt O14727). The assay is classed as functional.
For a further assay, the target named is SUMO-activating enzyme (Homo sapiens, UniProt Q9UBT2). Put plainly: inhibitors of in vitro SUMOylation cascade, primary screen, biochemical, HTRF, uHTS (AID 2006). Format: protein-complex assay.
Assay [4] addresses Mitogen-activated protein kinase 14 (Homo sapiens, UniProt Q16539). The assay is classed as functional.
Another assay in a line: cells. The assay is classed as functional, cell-based.

Molecules are shown by their SMILES. Calls of active or inactive are those of the source.

As a reminder, the AC50 is the concentration at which the activity in the assay is half-maximal. For orientation: IC50 means the concentration that inhibits the measured activity by half. The Ki is a dissociation constant, usually derived from enzyme kinetics or from competition with a known ligand. Broadly, the EC50 is the midpoint of the concentration-response curve.
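Throughout, for Ki: part of a kinome-wide panel, MAPK14 entry.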

On to `Cc1ccc(C(=O)OCn2ncc(Cl)c(Cl)c2=O)cc1`, for which, in assay [1], the AC50 was 3.66 µM (active). The IC50 in assay [2] is 6.12 µM (active).

As to `O=C(O)CC(C(=O)O)N1C(=O)/C(=C/C=C/c2ccco2)SC1=S` (configuration not stated), the IC50 on Troponin, cardiac muscle was > 71.5 µM (inactive); in assay [3] it was 36.6 µM (active); at SUMO-activating enzyme it was 13.7 µM (active).

Take `O=C(Nc1cccc(C2Nc3ccc4ccccc4c3C3C=CCC32)c1)c1ccc(F)cc1` (configuration not stated): the Ki in assay [4] was > 3.98 µM (inactive).

Turning to `CCCC(=O)NC(c1cccs1)c1cc(Cl)c2cccnc2c1O` (configuration not stated), the EC50 in “cells” is 24.4 µM (active).

These data come from ChEMBL document CHEMBL1201862, “PubChem BioAssay data set” (2004).
